ChEMBL document CHEMBL1201862, “PubChem BioAssay data set” (2004)
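Five concentrations, 48 hours, 96-well plates. GI50: concentration for 50% inhibition of growth.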 The source made the active and inactive calls. No stated cut-off is given here; in the data, active = GI50 up to about 1.1 µM and inactive = higher.

Columns and labels:
Assay in all cases: DTP human tumour cell line panel, 48 h
SK-MEL-5 = system: SK-MEL-5
ACHN = system: ACHN
SN12C = system: SN12C
HCT-116 = system: HCT-116
HCC 2998 = system: HCC 2998
U-251 = system: U-251
M14 = system: M14
SK-MEL-28 = system: SK-MEL-28
NCI-H226 = system: NCI-H226
SNB-75 = system: SNB-75
NCI-H460 = system: NCI-H460
NCI/ADR-RES = system: NCI/ADR-RES
MDA-N = system: MDA-N
NCI-H23 = system: NCI-H23
A549 = system: A549
HL-60 = system: HL-60
CCRF-CEM = system: CCRF-CEM
HT-29 = system: HT-29

Measured: GI50

C=CCCCCCCC#CCCCCCCCCCC[C@@H]1C(=O)O[C@H](C)[C@@H]1O.CCCCCCCCC#CCCCCCCCCCC[C@@H]1C(=O)O[C@H](C)[C@@H]1O
inactive: SK-MEL-5 13.3 µM | ACHN 17.7 µM | SN12C 15.3 µM | HCT-116 16.2 µM | HCC 2998 23.6 µM | U-251 18.7 µM | M14 17.3 µM | SK-MEL-28 24 µM | NCI-H226 27.1 µM | SNB-75 16.7 µM | NCI-H460 11.7 µM | NCI/ADR-RES 9.59 µM | MDA-N 23.2 µM | NCI-H23 8.39 µM | A549 14.1 µM

COc1ccc(C(=O)/C=C/c2ccc3c(c2)OCO3)c(OCc2ccccc2)c1
inactive: SK-MEL-5 25.6 µM | ACHN 16.6 µM | SN12C 15.9 µM | HCT-116 6.79 µM | HL-60 2.01 µM | HCC 2998 8.28 µM | U-251 > 57.5 µM | CCRF-CEM 4.3 µM | M14 > 65.5 µM | SK-MEL-28 > 100 µM | NCI-H226 18.6 µM | SNB-75 > 55.1 µM | NCI-H460 8.22 µM | MDA-N 11.7 µM | NCI-H23 24.3 µM | A549 47.3 µM | HT-29 6.78 µM

N=C(N)N/N=C(/c1ccccc1)c1ccc(O)cc1O
inactive: SK-MEL-5 25.8 µM | ACHN 45.9 µM | SN12C 29.4 µM | HCT-116 29 µM | HCC 2998 16.9 µM | U-251 22.5 µM | M14 23 µM | SK-MEL-28 72.6 µM | NCI-H226 29.9 µM | SNB-75 49 µM | NCI-H460 27.4 µM | NCI/ADR-RES 95.3 µM | MDA-N 11.7 µM | NCI-H23 31.8 µM | A549 38.1 µM | HT-29 19.7 µM

C/C(=C\C(=O)O)C(=O)N(C)c1ccccc1I
inactive: SK-MEL-5 > 100 µM | ACHN > 100 µM | SN12C > 100 µM | HCT-116 > 100 µM | HCC 2998 > 100 µM | U-251 > 100 µM | CCRF-CEM > 100 µM | M14 > 100 µM | SK-MEL-28 > 100 µM | NCI-H226 > 100 µM | SNB-75 > 100 µM | NCI-H460 > 100 µM | NCI/ADR-RES > 100 µM | MDA-N > 100 µM | NCI-H23 > 100 µM | A549 > 100 µM

C=CCOCn1ccc(=O)[nH]c1=O
inactive: SK-MEL-5 > 100 µM | ACHN > 100 µM | SN12C > 100 µM | HCT-116 > 100 µM | HL-60 > 100 µM | HCC 2998 > 100 µM | CCRF-CEM > 100 µM | M14 > 100 µM | SK-MEL-28 > 100 µM | NCI-H226 > 100 µM | SNB-75 > 100 µM | NCI-H460 > 100 µM | MDA-N > 100 µM | NCI-H23 > 100 µM | A549 > 100 µM | HT-29 > 100 µM

CC(=O)OCC1OC(OCC2OC(N3C(=S)N[C@H]([C@@H](O)[C@H](O)[C@H](O)CO)[C@H]3O)C(OC(C)=O)C(OC(C)=O)C2OC(C)=O)C(OC(C)=O)C(OC(C)=O)C1OC(C)=O (some centres undefined)
inactive: SK-MEL-5 > 100 µM | ACHN > 100 µM | SN12C > 100 µM | HCT-116 > 100 µM | HCC 2998 > 100 µM | U-251 > 100 µM | M14 > 100 µM | SK-MEL-28 > 100 µM | NCI-H460 > 100 µM | NCI/ADR-RES > 100 µM | MDA-N > 100 µM | NCI-H23 > 100 µM | A549 > 100 µM | HT-29 65.6 µM

CCC1CC2CN3CCc4c([nH]c5c(-c6c(OC)ccc7c8c([nH]c67)[C@]6(C(=O)OC)CC7CC(CC)C6N(CC8)C7)c(O)ccc45)[C@](C(=O)OC)(C2)C13 (some centres undefined)
inactive: SK-MEL-5 13.6 µM | ACHN 19.6 µM | SN12C 4.34 µM | HCT-116 13 µM | HCC 2998 13.3 µM | U-251 12.9 µM | CCRF-CEM 15.3 µM | M14 24.9 µM | SK-MEL-28 15.8 µM | NCI-H226 4.92 µM | SNB-75 14.8 µM | NCI-H460 14.7 µM | NCI/ADR-RES 20.4 µM | MDA-N 12.2 µM | NCI-H23 16 µM | A549 17.6 µM | HT-29 5.37 µM

CN(C)c1ccc2c(SCC(=O)OCC(=O)[C@@]3(O)CC[C@H]4[C@@H]5CCC6=CC(=O)C=C[C@]6(C)[C@H]5C(=O)C[C@@]43C)c3ccc(N(C)C)cc3nc2c1
inactive: SK-MEL-5 15 µM | ACHN 4.53 µM | SN12C 7.01 µM | HCT-116 2.82 µM | HL-60 1.24 µM | HCC 2998 6 µM | U-251 15 µM | CCRF-CEM 1.35 µM | M14 27.8 µM | SK-MEL-28 21.6 µM | NCI-H226 14.8 µM | SNB-75 20.6 µM | NCI-H460 3.24 µM | MDA-N 14.4 µM | NCI-H23 16.7 µM | A549 15.2 µM | HT-29 2.02 µM

FC(F)(Sc1ccccn1)c1nc2ccccc2o1
inactive: SK-MEL-5 > 100 µM | ACHN > 100 µM | SN12C > 100 µM | HCT-116 62.2 µM | HCC 2998 > 100 µM | U-251 38.6 µM | CCRF-CEM 65.2 µM | M14 > 100 µM | SK-MEL-28 > 100 µM | NCI-H226 > 100 µM | NCI-H460 > 100 µM | NCI/ADR-RES 85.3 µM | MDA-N > 100 µM | NCI-H23 > 100 µM | A549 > 100 µM | HT-29 > 100 µM

Cc1nc(Cc2n[nH]c(C)n2)n[nH]1
inactive: SK-MEL-5 > 100 µM | ACHN > 100 µM | SN12C > 100 µM | HCT-116 > 100 µM | HCC 2998 > 100 µM | U-251 > 100 µM | CCRF-CEM > 100 µM | M14 > 100 µM | SNB-75 > 100 µM | NCI/ADR-RES > 100 µM | MDA-N > 100 µM | NCI-H23 > 100 µM | A549 > 100 µM | HT-29 > 100 µM

N#CCCN(CCC#N)c1ccc(C(/N=N/c2ccc(Cl)cc2)=N\c2ccccc2)cc1
inactive: SK-MEL-5 1.24 µM | ACHN 13.4 µM | SN12C 18.4 µM | HCT-116 12.1 µM | HCC 2998 6.55 µM | U-251 17.6 µM | M14 12.9 µM | SK-MEL-28 15.3 µM | NCI-H226 16 µM | SNB-75 17.4 µM | NCI-H460 7.78 µM | NCI/ADR-RES 10.8 µM | MDA-N 10.9 µM | NCI-H23 12.6 µM | A549 14.1 µM | HT-29 17.9 µM

COC1(OC)CCc2c(sc3ncnc(Nc4cccc(Br)c4)c23)C1
inactive: SK-MEL-5 30.9 µM | ACHN 5.71 µM | SN12C 68.4 µM | HCT-116 39.3 µM | HCC 2998 > 100 µM | U-251 61.5 µM | M14 44.4 µM | NCI-H226 43.8 µM | SNB-75 26.5 µM | NCI-H460 40.7 µM | NCI/ADR-RES 25.5 µM | MDA-N 35.4 µM | NCI-H23 35.4 µM | A549 25.9 µM | HT-29 20 µM
